Data: patent US9145354B2, “Pharmaceutical compounds” (priority 2011, dated 2015)
Like-named read-outs stand apart in the source and are kept apart here.

Molecular target: full length NS3/4a (Hepatitis C virus genotype 1b (isolate BK) (HCV), UniProt P26663)
Experiment: NS3 Protease Assay (Example A), FRET-based
Type: biochemical
Method: The HCV NS3 protease functions have been extensively studied and are considered as potential targets for antiviral therapy: see for example the many references listed in the introductory section of this application. Therefore, the activity of the compounds of the invention as anti-HCV agents was assessed using a full length HCV NS3 protease.
The protease activity of the full length NS3/4a was measured using a FRET-based assay utilizing a peptide substrate derived from the NS4A/B cleavage site (Anaspec) and labelled at one end with a quencher (QXL520) and at the other with a fluorophore (5-FAMsp). NS3/4a (produced in-house by literature methods) was incubated with test compounds and peptide substrate in 50 mM Tris pH8, 20 mM DTT, 1% CHAPS, 10% glycerol and 5% DMSO. The reaction was followed by monitoring the change in fluorescence on a Molecular Devices Gemini plate reader for 30 minutes at room temperature. Initial rates were calculated from the progress curves using SoftMax Pro (Molecular Devices). IC50 values were then calculated from replicate curves using Prism GraphPad software.

[1] = HCV NS3 protease assay, full length NS3/4a, read-out: Assay A IC50 (μM) average
[2] = read-out: IC50 against the protease activity of the full length NS3/4a
[3] = stated as IC50 less than 30 μM or at least 40% inhibition at a concentration of 100 μM, read-out: IC50 against the protease activity of the full length NS3/4a

full length NS3/4a, sequence (P26663 1027-1657): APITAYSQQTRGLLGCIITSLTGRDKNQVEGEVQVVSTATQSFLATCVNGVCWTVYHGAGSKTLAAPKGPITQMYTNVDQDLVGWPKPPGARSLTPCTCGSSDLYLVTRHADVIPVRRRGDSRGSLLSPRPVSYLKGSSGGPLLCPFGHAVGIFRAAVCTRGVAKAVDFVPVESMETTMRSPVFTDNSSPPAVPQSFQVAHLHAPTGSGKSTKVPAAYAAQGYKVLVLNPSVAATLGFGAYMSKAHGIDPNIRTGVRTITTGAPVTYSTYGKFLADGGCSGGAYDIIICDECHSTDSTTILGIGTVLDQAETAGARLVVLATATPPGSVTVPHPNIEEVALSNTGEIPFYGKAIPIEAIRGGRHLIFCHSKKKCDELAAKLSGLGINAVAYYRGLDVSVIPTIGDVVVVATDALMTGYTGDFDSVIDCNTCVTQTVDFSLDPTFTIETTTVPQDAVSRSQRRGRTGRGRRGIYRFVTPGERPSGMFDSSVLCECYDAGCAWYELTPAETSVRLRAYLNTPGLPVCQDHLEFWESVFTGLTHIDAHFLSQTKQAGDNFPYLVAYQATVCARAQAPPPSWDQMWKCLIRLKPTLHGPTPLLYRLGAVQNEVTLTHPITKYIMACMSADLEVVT

CC[C@@H](N[C@H](C)CC(N)=O)c1ccc(Cl)c(C(=O)c2ccc(C#N)cc2)c1F [Example 92, (3R)-3-{[(1R)-1-{4-chloro-3-[(4-cyanophenyl)carbonyl]-2-fluorophenyl}propyl]amino}-butanamide]
IC50 [1]: 0.34 µM

CC[C@@H](N[C@H](C)CC(N)=O)c1ccc(Cl)c(C(=O)c2cccnc2)c1F [Example 94, (3R)-3-{[(1R)-1-{4-chloro-2-fluoro-3-[(pyridin-3-yl)carbonyl]phenyl}propyl]amino}butanamide]
IC50 [1]: 1 µM | IC50 [2]: 1 to 5 µM

CC[C@@H](N[C@H](C)CC(N)=O)c1ccc(Cl)c(C(=O)c2cccc(F)c2)c1F [Example 96, (3R)-3-{[(1R)-1-{4-chloro-2-fluoro-3-[(3-fluorophenyl)-carbonyl]phenyl}propyl]amino}butanamide]
inhibition at 0.3 µM (@ 0.3 uM): 58%

CC[C@@H](N[C@H](C)CC(N)=O)c1ccc(Cl)c(C(=O)c2ccc(F)cc2)c1F [Example 98, (3R)-3-{[(1R)-1-{4-chloro-2-fluoro-3-[(4-fluorophenyl)-carbonyl]phenyl}propyl]amino}butanamide]
IC50 [1]: 0.6 µM

CC[C@@H](N[C@@H](C)CC(N)=O)c1ccc(Cl)c(C(=O)c2ccncn2)c1F [Example 99, (3S)-3-{[(1R)-1-{4-chloro-2-fluoro-3-[(pyrimidin-4-yl)carbonyl]phenyl}propyl]-amino}butanamide]
IC50 [1]: 0.25 µM

CC[C@@H](N[C@H](C)CC(N)=O)c1ccc(Cl)c(C(=O)c2ccncn2)c1F [Example 100, (3R)-3-{[(1R)-1-{4-chloro-2-fluoro-3-[(pyrimidin-4-yl)carbonyl]phenyl}propyl]amino}butanamide]
IC50 [1]: 14 µM | IC50 [3]: < 30 µM

CC[C@@H](N[C@H](C)CC(N)=O)c1ccc(Cl)c(C(=O)c2cccc(C#N)c2)c1F [Example 102, (3R)-3-{[(1R)-1-{4-chloro-3-[(3-cyanophenyl)carbonyl]-2-fluorophenyl}propyl]amino}-butanamide]
IC50 [1]: 1.2 µM | IC50 [2]: 1 to 5 µM

CC[C@@H](N[C@H](C)CC(N)=O)c1ccc(Cl)c(C(=O)c2ccccn2)c1F [Example 105, (3R)-3-{[(1R)-1-{4-chloro-2-fluoro-3-[(pyridin-2-yl)carbonyl]phenyl}propyl]amino}butanamide]
inhibition at 30 µM: 57% | IC50 [3]: < 30 µM

CC[C@@H](N[C@H](C)CC(N)=O)c1ccc(Cl)c(C(=O)c2ccncc2)c1F [Example 107, (3R)-3-{[(1R)-1-{4-chloro-2-fluoro-3-[(pyridin-4-yl)carbonyl]phenyl}propyl]-amino}butanamide]
IC50 [1]: 1.1 µM | IC50 [2]: 1 to 5 µM

CC[C@@H](N[C@H](C)CC(N)=O)c1ccc(Cl)c(C(=O)c2ccns2)c1F [Example 109, (3R)-3-{[(1R)-1-{4-chloro-2-fluoro-3-[(1,2-thiazol-5-yl)carbonyl]phenyl}propyl]-amino}butanamide]
IC50 [1]: 0.47 µM

CC[C@@H](N[C@H](C)CC(N)=O)c1ccc(Cl)c(C(=O)c2cc(C)on2)c1F [Example 111, (3R)-3-{[(1R)-1-{4-chloro-2-fluoro-3-[(5-methyl-1,2-oxazol-3-yl)carbonyl]-phenyl}-propyl]amino}-butanamide]
IC50 [1]: 3.1 µM | IC50 [2]: 1 to 5 µM

C[C@H](CC(N)=O)N[C@@H](c1ccc(Cl)c(C(=O)c2ccccc2)c1F)C1CC1 [Example 112, (3R)-3-{[(R)-(3-benzoyl-4-chloro-2-fluorophenyl)(cyclopropyl)-methyl]amino}butanamide]
IC50 [1]: 0.62 µM

CC[C@@H](N[C@H](C)CC(N)=O)c1ccc(Cl)c(C(=O)c2ccccc2)c1F [Example 114, (3R)-3-{[(1R)-1-(3-benzoyl-4-chloro-2-fluorophenyl)-(2,2,3,3,3-D)propyl]amino}-butanamide]
IC50 [1]: 0.75 µM

CC[C@@H](N[C@H](C)CC(N)=O)c1ccc(Cl)c(C(=O)c2ccc[n+]([O-])c2)c1F [Example 117, (R)-3-{(R)-1-[4-Chloro-2-fluoro-3-(1-oxy-pyridine-3-carbonyl)-phenyl]propylamino}-butyramide]
Assay A % inhibition average (@ 10 uM): 16% @ 10 uM

C[C@H](CC(N)=O)N[C@@H](c1ccc(Cl)c(C(=O)c2cccnc2)c1F)C1CC1 [Example 118, (3R)-3-{[(R)-{4-chloro-2-fluoro-3-[(pyridin-3-yl)carbonyl]phenyl}(cyclopropyl)methyl]amino}-butanamide]
inhibition at 3 µM (@ 3 uM): 41% | IC50 [3]: < 30 µM

C[C@H](CC(N)=O)N[C@@H](c1ccc(Cl)c(C(=O)c2ccc(F)cc2)c1F)C1CC1 [Example 120, (3R)-3-{[(R)-{4-chloro-2-fluoro-3-[(4-fluorophenyl)carbonyl]phenyl}(cyclopropyl)methyl]amino}butanamide]
IC50 [1]: 1.2 µM | IC50 [2]: 1 to 5 µM

CC[C@@H](N[C@@H](C)CC(N)=O)c1ccc(Cl)c(C(=O)c2cccc(C(=O)O)c2)c1F [Example 122, 3-({3-[(1R)-1-{[(2S)-1-carbamoylpropan-2-yl]amino}propyl]-6-chloro-2-fluorophenyl}carbonyl)-benzoic acid]
IC50 [1]: 1.4 µM | IC50 [2]: 1 to 5 µM

CC[C@@H](N[C@H](C)CC(N)=O)c1ccc(Cl)c(C(=O)c2cccc(C(=O)O)c2)c1F [Example 123, 3-({3-[(1R)-1-{[(2R)-1-carbamoylpropan-2-yl]amino}propyl]-6-chloro-2-fluorophenyl}carbonyl)-benzoic acid]
IC50 [1]: 3.2 µM | IC50 [2]: 1 to 5 µM

[2H]C([2H])([2H])C([2H])([2H])[C@@H](N[C@H](C)CC(N)=O)c1ccc(Cl)c(C(=O)c2ccc3c(c2)OCC(=O)N3)c1F [Example 124, (3R)-3-{[(1R)-1-{4-chloro-2-fluoro-3-[(3-oxo-3,4-dihydro-2H-1,4-benzoxazin-7-yl)carbonyl]phenyl} (2,2,3,3,3-deutero)propyl]amino}-butanamide]
IC50 [1]: 1 µM | IC50 [2]: 1 to 5 µM

C[C@H](CC(N)=O)N[C@@H](c1ccc(Cl)c(C(=O)c2ccc(C#N)cc2)c1F)C1CC1 [Example 128, (3R)-3-{[(R)-{4-chloro-3-[(4-cyanophenyl)-carbonyl]-2-fluorophenyl}(cyclo-propyl)methyl]amino}-butanamide]
IC50 [1]: 0.28 µM | IC50 [2]: < 1 µM

C[C@@H](CC(N)=O)N[C@@H](c1ccc(Cl)c(C(=O)c2ccc(C#N)cc2)c1F)C1CC1 [Example 129, (3S)-3-{[(R)-{4-chloro-3-[(4-cyanophenyl)-carbonyl]-2-fluorophenyl}(cyclo-propyl)methyl]amino}-butanamide]
inhibition at 0.03 µM (@ 0.03 uM): 36%

C[C@H](CC(N)=O)N[C@@H](c1ccc(Cl)c(C(=O)c2ccncc2)c1F)C1CC1 [Example 130, (3R)-3-{[(R)-{4-chloro-2-fluoro-3-[(pyridin-4-yl)carbonyl]phenyl}-(cyclopropyl)methyl]-amino}butanamide]
IC50 [1]: 1.5 µM | IC50 [2]: 1 to 5 µM

CC[C@@H](N[C@H](C)C1(C(N)=O)CC1)c1ccc(Cl)c(C(=O)c2cccnc2)c1F [Example 131, 1-[(1R)-1-{[(1R)-1-{4-chloro-2-fluoro-3-[(pyridin-3-yl)carbonyl]phenyl}-propyl]-amino}ethyl]-cyclopropane-1-carboxamide]
IC50 [1]: 7.9 µM | IC50 [3]: < 30 µM

CC[C@@H](N[C@H](C)CC(N)=O)c1ccc(Cl)c(C(=O)c2cnc(N)cn2)c1F [Example 135, (3R)-3-{[(1R)-1-{3-[(5-aminopyrazin-2-yl)carbonyl]-4-chloro-2-fluorophenyl}propyl]-amino}butanamide]
IC50 [1]: 3.4 µM | IC50 [2]: 1 to 5 µM

CC[C@@H](N[C@@H](C)CC(N)=O)c1ccc(Cl)c(C(=O)c2ccc(N(C)C)nc2)c1F [Example 136, (3S)-3-{[(1R)-1-(4-chloro-3-{[6-(dimethylamino)pyridin-3-yl]carbonyl}-2-fluorophenyl)propyl]-amino}butanamide]
IC50 [1]: 0.83 µM | IC50 [2]: < 1 µM

CC[C@@H](N[C@H](C)CC(N)=O)c1ccc(Cl)c(C(=O)c2ccc(N(C)C)nc2)c1F [Example 137, (3R)-3-{[(1R)-1-(4-chloro-3-{[6-(dimethylamino)pyridin-3-yl]carbonyl}-2-fluorophenyl)propyl]amino}butanamide]
inhibition at 30 µM: 60% | IC50 [3]: < 30 µM

CC[C@@H](N[C@@H](C)CC(N)=O)c1ccc(Cl)c(C(=O)c2cnc(N)cn2)c1F [Example 138, (3S)-3-{[(1R)-1-{3-[(5-aminopyrazin-2-yl)carbonyl]-4-chloro-2-fluorophenyl}propyl]-amino}butanamide]
IC50 [1]: 0.31 µM | IC50 [2]: < 1 µM

CC[C@@H](N[C@H](C)CC(N)=O)c1ccc(Cl)c(C(=O)c2ccc(-n3cccn3)nc2)c1F [Example 140, (3R)-3-{[(1R)-1-(4-chloro-2-fluoro-3-{[6-(1H-pyrazol-1-yl)pyridin-3-yl]carbonyl}-phenyl)-propyl]amino}-butanamide]
IC50 [1]: 3.9 µM | IC50 [2]: 1 to 5 µM

CC[C@@H](N[C@H](C)CC(N)=O)c1ccc(Cl)c(C(=O)c2ccc(C#N)nc2)c1F [Example 141, (3R)-3-{[(1R)-1-{4-chloro-3-[(6-cyanopyridin-3-yl)carbonyl]-2-fluorophenyl}propyl]-amino}butanamide]
IC50 [1]: 0.47 µM | IC50 [2]: < 1 µM

CC[C@@H](N[C@H](C)CC(N)=O)c1ccc(Cl)c(C(=O)c2cc[n+]([O-])cc2)c1F [Example 143, (R)-3-{(R)-1-[4-Chloro-2-fluoro-3-(1-oxy-pyridine-4-carbonyl)-phenyl]propylamino}-butyramide]
Assay A % inhibition average: 59% @ 30 uM | IC50 [3]: < 30 µM
